Measurements from patent US20060270634A1, “Acetal phosphate-derived LPA mimics, PPARgamma activators, and autotaxin inhibitors” (priority 2005, published 2006).
Like-named read-outs stand apart in the source and are kept apart here.

What was measured:
PPARγ = target: T1, PPARγ (Homo sapiens, UniProt P37231); experiment: PPARγ activation, PPRE-Acox-Rluc reporter gene assay in CV1 cells; type: cell-based; details: for PPARγ: Table 3; for PPARγ activation in words: FIG. 9: 10 μM, 20 h
T1 construct: expressed in transfected cells; host or cells: CV1 cells (African green monkey kidney)
T1 sequence (P37231 1-505): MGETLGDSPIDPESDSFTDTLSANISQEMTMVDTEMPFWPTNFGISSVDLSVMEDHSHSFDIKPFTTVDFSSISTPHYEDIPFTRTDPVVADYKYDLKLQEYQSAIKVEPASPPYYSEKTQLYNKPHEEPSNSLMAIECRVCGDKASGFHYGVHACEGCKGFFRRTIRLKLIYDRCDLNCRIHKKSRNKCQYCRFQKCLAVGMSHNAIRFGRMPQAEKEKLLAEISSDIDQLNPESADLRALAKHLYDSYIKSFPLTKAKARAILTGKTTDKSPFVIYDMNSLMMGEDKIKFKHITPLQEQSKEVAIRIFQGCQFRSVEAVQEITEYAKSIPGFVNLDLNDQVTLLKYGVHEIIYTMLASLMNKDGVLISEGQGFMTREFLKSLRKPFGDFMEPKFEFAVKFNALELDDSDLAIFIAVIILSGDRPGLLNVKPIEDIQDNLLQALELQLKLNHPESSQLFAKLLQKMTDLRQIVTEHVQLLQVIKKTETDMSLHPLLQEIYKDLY
Description: (§1) The biological effects of all synthesized compounds were testing using three high-throughput assays. First, intracellular calcium transients in rat hepatoma (RH777, an LPA receptor null cell) cell lines individually expressing either LPA1, LPA2, and LPA3 receptors were analyzed to evaluate compounds as agonists or antagonists. […] The PPRE-Acox-Rluc construct contains a renilla luciferase coding region, an acyl-CoA oxidase coding region, and a PPAR response element coding region. Third, inhibition of the lysophospholipase D autotoxin was determined using a previously described procedure.
PPARγ is a lipid-activated transcription factor that belongs to the nuclear hormone superfamily. The inventors examined the activity of all synthesized Darmstoff analogs as PPARγ activators in vitro in CV1 cells using a PPRE-Acox-Rluc reporter gene assay. Rosiglitazone, a known PPARγ agonist, was used as a positive control for comparison.
RH7777 cells, which lack LPA GPCR, were stably transfected with individual LPA1, LPA2 and LPA3 receptors and used for the in vitro screening.
Unlike the enantiospecific responses compounds at LPA GPCR by APA analogs, there was no stereoselectivity observed in PPARγ activation by these analogs.

[1] = target: lysophospholipase D (autotaxin, ATX) (Homo sapiens, UniProt Q13822); experiment: Inhibition of lysophospholipase D autotaxin; type: biochemical; details: Table 3
Description: as §1
LPA is liberated as the product of lysophosphatidylcholine hyrolysis by the lysophospholipase D, autotaxin (ATX). The inventors screened Darmstoff analogs for ATX inhibition. As indicated by the data, all tested analogs are capable of ATX inhibition independently of their ligand properties at LPA GPCR and PPARγ.

LPA2 = LPA2 (Homo sapiens, UniProt Q9HBW0); experiment: Ca2+ transients in RH7777 cells expressing LPA2 (agonist / inhibition of LPA response)
Description: (§2) Synthesized compounds were tested for induction and inhibition of LPA-induced calcium transients in rat hepatoma (RH7777) cell lines that stably express individual LPA1, LPA2, and LPA3 receptors as described in the literature using a FlexStation II automated fluorimeter (Molecular Devices, Sunnyvale, Calif.).

LPA3 [2] = target: T2, LPA3 (Homo sapiens, UniProt Q9UBY5); experiment: Ca2+ transients in RH7777 cells expressing LPA3 (agonist / inhibition of LPA response); details: for EC50: read-out: LPA3 EC50; for IC50: read-out: LPA3 IC50
T2 sequence (Q9UBY5 1-353): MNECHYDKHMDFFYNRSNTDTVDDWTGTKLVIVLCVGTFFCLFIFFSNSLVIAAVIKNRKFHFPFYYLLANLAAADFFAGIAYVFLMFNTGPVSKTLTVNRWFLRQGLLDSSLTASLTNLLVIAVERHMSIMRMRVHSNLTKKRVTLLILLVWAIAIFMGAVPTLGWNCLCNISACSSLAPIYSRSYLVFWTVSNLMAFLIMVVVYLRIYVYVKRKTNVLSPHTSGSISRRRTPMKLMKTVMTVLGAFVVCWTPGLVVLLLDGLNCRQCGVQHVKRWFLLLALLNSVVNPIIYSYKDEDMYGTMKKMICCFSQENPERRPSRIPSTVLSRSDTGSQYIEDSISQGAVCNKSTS
Description: as §2

PC3 cells = experiment: Calcium mobilization response in PC3 cells; type: cell-based; details: for IC50: read-out: PC3 cells IC50
LPA1 [3] = target: T3, LPA1 (Homo sapiens, UniProt Q92633); experiment: Ca2+ transients in RH7777 cells expressing LPA1 (agonist / inhibition of LPA response)
Description: as §2

LPA1 [4] = target: T3, LPA1; set-up: expressed in transfected cells; host or cells: RH7777 rat hepatoma cells; details: cited from earlier work
LPA3 [5] = target: T2, LPA3; set-up: expressed in transfected cells; host or cells: RH7777 rat hepatoma cells; details: cited from earlier work
[6] = Table 3, maximal efficacy of drug/maximal efficacy of LPA 18:1

Chain of LPA2 (Q9HBW0 whole entry, species assumed): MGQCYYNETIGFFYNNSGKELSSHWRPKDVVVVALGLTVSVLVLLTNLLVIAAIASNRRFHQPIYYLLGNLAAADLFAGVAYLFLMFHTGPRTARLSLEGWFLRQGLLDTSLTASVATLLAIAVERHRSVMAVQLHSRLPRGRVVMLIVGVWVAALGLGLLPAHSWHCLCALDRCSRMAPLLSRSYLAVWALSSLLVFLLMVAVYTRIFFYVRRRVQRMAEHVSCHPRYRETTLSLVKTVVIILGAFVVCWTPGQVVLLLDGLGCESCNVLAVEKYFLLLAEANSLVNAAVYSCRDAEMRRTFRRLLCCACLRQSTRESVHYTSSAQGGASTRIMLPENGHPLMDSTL
T3 sequence (Q92633 whole entry, species assumed): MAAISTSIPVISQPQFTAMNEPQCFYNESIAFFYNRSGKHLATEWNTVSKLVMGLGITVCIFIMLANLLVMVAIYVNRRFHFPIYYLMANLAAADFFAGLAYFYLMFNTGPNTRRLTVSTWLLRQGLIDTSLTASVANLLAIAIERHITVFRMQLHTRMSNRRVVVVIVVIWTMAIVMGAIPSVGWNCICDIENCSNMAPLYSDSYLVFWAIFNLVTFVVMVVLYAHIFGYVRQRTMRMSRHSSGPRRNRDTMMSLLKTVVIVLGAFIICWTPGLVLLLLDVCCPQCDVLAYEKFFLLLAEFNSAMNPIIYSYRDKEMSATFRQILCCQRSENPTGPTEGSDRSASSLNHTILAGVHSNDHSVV

CCCCCCCCC=CCCCCCCCC1OCC(COP(=O)([O-])O)O1.[K+] (mixture of isomers) [Analog 13]
PPARγ (PPARγ): Agonist
ATX (% inhib.) [1]: 30%
IC50 [1]: 141 nM
LPA2 agonist/antagonist activity in words (LPA2): inhibited LPA1-3 receptors
IC50 (LPA2; read-out: LPA2 IC50, Table 3): > 30000 nM
LPA3 agonist/antagonist activity in words (LPA3 [2]): LPA1/3 antagonist activity
Ki (LPA3 [2]; read-out: LPA3 (Ki), Table 3): 548 nM
EC50 (LPA3 [2]; Table 3): > 30000 nM
IC50 (LPA3 [2]; Table 3): 527 nM

CCCCCCCCCCCCC1OCC(COP(=O)(O)O)O1 (stereo not shown) [Analog 12]
PPARγ (PPARγ): Agonist
ATX (% inhib.) [1]: 26%
IC50 [1]: 232 nM
IC50 (PC3 cells; Homo sapiens, PC-3, inhibition of 100 nM LPA response): 1860 nM
IC50 (PC3 cells; Homo sapiens, PC-3, inhibition of 300 nM LPA response): 2110 nM
Ki (LPA1 [3]): 652 nM
LPA1 agonist/antagonist activity in words (LPA1 [3]): pantagonist
IC50 (LPA1 [3]; LPA1 IC50, 200 nM LPA): 1110 nM
IC50 (LPA1 [3]; LPA1 IC50, 300 nM LPA): 2150 nM
IC50 (LPA1 [3]; LPA1 IC50, Table 3): 1110 nM
IC50 (LPA1 [3]; RH-LPA1 cells IC50, inhibition of 200 nM LPA response): 1110 nM
IC50 (LPA1 [3]; RH-LPA1 cells IC50, inhibition of 300 nM LPA response): 2150 nM
EC50 (LPA1 [3]; read-out: LPA1 EC50, Table 3): > 30000 nM
LPA2 agonist/antagonist activity in words (LPA2): pantagonist
EC50 (LPA2; LPA2 EC50, *transient): 1180 nM
EC50 (LPA2; LPA2 EC50, Table 3): > 30000 nM
IC50 (LPA2; RH-LPA2 cells IC50, inhibition of 200 nM LPA response): 397 nM
IC50 (LPA2; RH-LPA2 cells IC50, inhibition of 300 nM LPA response): 657 nM
Ki (LPA3 [2]): 681 nM
LPA3 agonist/antagonist activity in words (LPA3 [2]): pantagonist
EC50 (LPA3 [2]; Table 3): > 30000 nM
IC50 (LPA3 [2]; 200 nM LPA): 2870 nM
IC50 (LPA3 [2]; Table 3): 2870 nM

CCCCCCCC/C=C\CCCCCCCC1OCC(COP([O-])(O)=S)O1.[K+] (stereo not shown) [Analog 14, 2-Heptadec-8-enyl-(1,3)dioxolan-4yl methyldipotassium thiophosphate]
EC50 (PC3 cells; Homo sapiens, PC-3, compound alone): 1370 nM
Emax (PC3 cells; Homo sapiens, PC-3, of the LPA-alone max. response, read-out: PC3 cells maximal response): ~86%
PC3 cells effect of compound alone (PC3 cells; compound alone): stimulatory effect. Its maximal
EC50 (LPA1 [3]; LPA1 EC50): 981 nM
Emax (LPA1 [3]; RH7777, read-out: RH-LPA1 cells maximal response): ~50%
EC50 (LPA1 [3]; RH-LPA1 cells EC50, compound alone): 2170 nM
LPA1 effect in words (LPA1 [3]; Tables 2, 4, 6): Partial agonist
RH-LPA1 cells effect of compound alone (LPA1 [3]; compound alone): stimulatory effect. Its maximal
LPA2 effect in words (LPA2; *transient): almost full agonist
EC50 (LPA2; LPA2 EC50, *transient): 34 nM
Emax (LPA2; RH7777, read-out: RH-LPA2 cells maximal response): ~74%
EC50 (LPA2; RH-LPA2 cells EC50, compound alone): 639 nM
RH-LPA2 cells effect of compound alone (LPA2; compound alone): stimulatory effect. Its maximal
LPA3 effect in words (LPA3 [2]; Tables 2, 4, 6): Partial agonist
EC50 (LPA3 [2]): 639 nM

CCCCCCCCC=CCCCCCCCC1OCC(COP(=O)([O-])O)O1.[K+] (stereo not shown) [Analog 37]
PPARγ (PPARγ): Agonist
ATX (% inhib.) [1]: 46%
IC50 [1]: 238 nM
EC50 (LPA2; read-out: LPA2 EC50, Table 3): > 10000 nM
IC50 (LPA2; read-out: LPA2 IC50, Table 3): > 30000 nM
LPA3 agonist/antagonist activity in words (LPA3 [2]): LPA3 antagonists
Ki (LPA3 [2]; read-out: LPA3 (Ki), Table 3): 241 nM
EC50 (LPA3 [2]; Table 3): > 30000 nM
IC50 (LPA3 [2]; Table 3): 484 nM

CCCCCCCCC=CCCCCCCCC1OCC(COP([O-])(O)=S)O1.[K+] (stereo not shown) [Analog 38]
PPARγ (PPARγ): Agonist
ATX (% inhib.) [1]: 64%
IC50 [1]: 363 nM
LPA1 agonist/antagonist activity in words (LPA1 [3]): pan-agonists
LPA1 (Emax) (LPA1 [3]; [6]): 68%
EC50 (LPA1 [3]; read-out: LPA1 EC50, Table 3): 2260 nM
IC50 (LPA1 [3]; read-out: LPA1 IC50, Table 3): > 30000 nM
LPA2 agonist/antagonist activity in words (LPA2): pan-agonists
LPA2 (Emax) (LPA2; [6]): 72%
EC50 (LPA2; read-out: LPA2 EC50, Table 3): 1540 nM
IC50 (LPA2; read-out: LPA2 IC50, Table 3): > 30000 nM
LPA3 agonist/antagonist activity in words (LPA3 [2]): full agonists
LPA3 (Emax) (LPA3 [2]; [6]): 102%
EC50 (LPA3 [2]; Table 3): 204 nM
IC50 (LPA3 [2]; Table 3): > 30000 nM

CCCCCCCCNC(=O)[C@H](COP(=O)(O)O)NC(=O)CCCCCCC [Cpd 19a]
PPARγ activation in words (PPARγ): agonist of PPARγ
LPA1 agonist/antagonist activity in words (LPA1 [3]): no effect
LPA2 agonist/antagonist activity in words (LPA2): no effect
LPA3 agonist/antagonist activity in words (LPA3 [2]): selective LPA3 antagonist
Ki (LPA3 [2]; read-out: LPA3 (Ki), Table 5): 196 nM
IC50 (LPA3 [2]; Table 5): 414 nM

CCCCCCCCNC(=O)[C@@H](COP(=O)(O)O)NC(=O)CCCCCCC [Cpd 19b]
PPARγ activation in words (PPARγ): no effect
LPA1 agonist/antagonist activity in words (LPA1 [3]): no effect
LPA2 agonist/antagonist activity in words (LPA2): no effect
LPA3 agonist/antagonist activity in words (LPA3 [2]): true LPA3 receptor specific antagonist
Ki (LPA3 [2]; read-out: LPA3 (Ki), Table 5): 489 nM
IC50 (LPA3 [2]; Table 5): 935 nM

dioctanoyl glycerol pyrophosphate [DGPP 8:0]
LPA1 activity in words, previously reported (LPA1 [4]): antagonists
LPA3 activity in words, previously reported (LPA3 [5]): antagonists
